# System: IFNα-induced pSTAT5 (pY694) in CD3 positive cells of human whole blood
# Assay: IFNα-Induced STAT Phosphorylation in Human Whole Blood
# Type: cell-based
# Conditions: Homo sapiens, 1 h compound incubation, 1000 U/mL recombinant human IFNα A/D for 15 min, pSTAT5 in CD3 positive population, read-out: Human WB IFNα-Induced Stat Phosph. (IC50)
# Procedure, shortened: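 Read-out is median fluorescence intensity of pSTAT5 (pY694) in the CD3-positive gate, by flow cytometry after fix/lyse and permeabilization. Before that, whole human blood anticoagulated with EDTA or ACD-A received compound for an hour and 1000 U/mL IFNα A/D for 15 min.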
row,SMILES,IC50 [nM]
1,[2H]C([2H])([2H])NC(=O)c1nnc(NC(=O)C2CC2)cc1Nc1cccc(-c2nc(C(OCC)OCC)no2)c1OC [Example 224],880
2,[2H]C([2H])([2H])NC(=O)c1nnc(NC(=O)C2CC2)cc1Nc1cccc(-c2cc(C(=O)N(C)CC)n(C)n2)c1OC [Example 539],120
3,[2H]C([2H])([2H])NC(=O)c1nnc(NC(=O)C2CC2)cc1Nc1cc(F)cc(-c2cc(C(=O)N(C)CC)n(C)n2)c1OC [Example 505],180
4,[2H]C([2H])([2H])NC(=O)c1nnc(NC(=O)C2CC2)cc1Nc1cccc(-c2nc(CN3CCNCC3)no2)c1OC [Example 126],630
5,[2H]C([2H])([2H])NC(=O)c1nnc(NC(=O)C2CC2)cc1Nc1cccc(-c2ncc(N)s2)c1OC [Example 282],180
6,[2H]C([2H])([2H])NC(=O)c1nnc(NC(=O)C2CC2)cc1Nc1cccc(-c2ncc(C(=O)N3CC(C)(C)C3)s2)c1OC [Example 320],50
7,[2H]C([2H])([2H])NC(=O)c1nnc(NC(=O)C2CC2)cc1Nc1cccc(-c2nc(CN3CC4CN(C(=O)OC(C)(C)C)CC4C3)no2)c1OC (centres unmarked) [Example 231],1750
8,[2H]C([2H])([2H])NC(=O)c1nnc(NC(=O)C2CC2)cc1Nc1cccc(-n2cc(CN3CCOCC3)nn2)c1OC [Example 2],650
9,[2H]C([2H])([2H])NC(=O)c1nnc(NC(=O)C2CC2)cc1Nc1cccc(-c2cnn(CCNC(=O)CO)n2)c1OC [Example 447],160
10,[2H]C([2H])([2H])NC(=O)c1nnc(NC(=O)C2CC2)cc1Nc1cccc(-c2ncc(C(=O)NCCNC(=O)CC)s2)c1OC [Example 240],180
11,[2H]C([2H])([2H])NC(=O)c1nnc(NC(=O)C2CC2)cc1Nc1cccc(-c2nc([C@@H](C)NS(C)(=O)=O)no2)c1OC [Example 195],720
12,[2H]C([2H])([2H])NC(=O)c1nnc(NC(=O)C2CC2)cc1Nc1cccc(-c2noc(CN3CCN(S(C)(=O)=O)CC3)n2)c1OC [Example 15],30
13,[2H]C([2H])([2H])NC(=O)c1nnc(NC(=O)C2CC2)cc1Nc1cccc(-c2noc([C@@H](C)O)n2)c1OC [Example 85],240
14,COc1c(Nc2cc(NC(=O)C3CC3)ncc2C(N)=O)cccc1-c1nc(CN2CCN(S(C)(=O)=O)CC2)no1 [Example 577],19
15,[2H]C([2H])([2H])NC(=O)c1nnc(NC(=O)C2CC2)cc1Nc1cccc(-c2ncc(CC(=O)N3CCOCC3)s2)c1OC [Example 253],300
16,COc1c(Nc2cc(NC(=O)C3CC3)nnc2C(N)=O)cccc1-c1noc(CS(C)(=O)=O)n1 [Example 64],110
17,[2H]C([2H])([2H])NC(=O)c1nnc(NC(=O)C2CC2)cc1Nc1cccc(-c2noc(CNS(C)(=O)=O)n2)c1OC [Example 32],80
18,[2H]C([2H])([2H])NC(=O)c1nnc(NC(=O)C2CC2)cc1Nc1cc(F)cc(-c2cc(C(=O)N3CCc4ccccc4C3)n(C)n2)c1OC [Example 512],2560
19,CCN(Cc1nc(-c2cccc(Nc3cc(NC(=O)C4CC4)nnc3C(N)=O)c2OC)no1)S(C)(=O)=O [Example 59],13
20,[2H]C([2H])([2H])NC(=O)c1nnc(NC(=O)C2CC2)cc1Nc1cccc(-c2ncc(C(=O)NCCCN3CCCC3=O)s2)c1OC [Example 293],30
21,[2H]C([2H])([2H])NC(=O)c1nnc(NC(=O)C2CC2)cc1Nc1cccc(-c2nc(CN3CCN(C(=O)c4ccccn4)CC3)no2)c1OC [Example 130],490
22,[2H]C([2H])([2H])NC(=O)c1cnc(NC(=O)C2CC2)cc1Nc1cccc(-c2noc(CN(C)S(C)(=O)=O)n2)c1OC [Example 94],11
23,"[2H]C([2H])([2H])NC(=O)c1nnc(NC(=O)C2CC2)cc1Nc1cccc(-c2cc(C(=O)N3CCS(=O)(=O)CC3)n(C)n2)c1OC [Example 455, 6-(cyclopropanecarboxamido)-4-((3-(5-(1,1-dioxidothiomorpholine-4-carbonyl)-1-methyl-1H-pyrazol-3-yl)-2-methoxyphenyl)amino)-N-(methyl-d3)pyridazine-3-carboxamide]",560
24,[2H]C([2H])([2H])NC(=O)c1nnc(Nc2ccc(C)nn2)cc1Nc1cc(F)cc(-c2cc(C(=O)N(C)C)n(C)n2)c1OC [Example 555],40
25,COc1c(Nc2cc(NC(=O)C3CC3)nnc2C(N)=O)cccc1-c1ncc(C(=O)N2CCCC2)s1 [Example 407],160
26,COc1c(Nc2cc(NC(=O)C3CC3)nnc2C(N)=O)cccc1-c1noc([C@H]2CCCN2S(C)(=O)=O)n1 [Example 53],210
27,COc1c(Nc2cc(NC(=O)C3CC3)nnc2C(N)=O)cccc1-c1ncc(C(=O)NCCC2CCCN2C)s1 (centres unmarked) [Example 247],100
28,COc1c(Nc2cc(NC(=O)C3CC3)ncc2C#N)cccc1-c1nc(CN2CCN(S(C)(=O)=O)CC2)no1 [Example 578],4340

# More lines, in order of falling IC50, values ahead:
row,IC50 [nM],SMILES
1,2690,[2H]C([2H])([2H])NC(=O)c1nnc(NC(=O)C2CC2)cc1Nc1cccc(-c2ncc(CNC(=O)CC)s2)c1OC [Example 262]
2,2410,[2H]C([2H])([2H])NC(=O)c1nnc(NC(=O)C2CC2)cc1Nc1cccc(-c2cc(C(=O)NCC(O)CO)n(C)n2)c1OC (centres unmarked) [Example 521]
3,1830,COC(=O)N1CCN(Cc2nc(-c3cccc(Nc4cc(N)nnc4C(N)=O)c3OC)no2)CC1 [Example 105]
4,1800,[2H]C([2H])([2H])NC(=O)c1nnc(NC(=O)C2CC2)cc1Nc1cccc(-c2ncc(CC(=O)NCCOC)o2)c1OC [Example 411]
5,1790,[2H]C([2H])([2H])NC(=O)c1nnc(NC(=O)C2CC2)cc1Nc1cccc(-c2nc(CNC(=O)CN3CCN(C)CC3)no2)c1OC [Example 160]
6,1480,[2H]C([2H])([2H])NC(=O)c1cnc(NC(=O)C2CC2)cc1Nc1cccc(-c2nc(C(C)N3CCN(C(C)=O)CC3)no2)c1OC (centres unmarked) [Example 222]
7,1310,[2H]C([2H])([2H])NC(=O)c1nnc(NC(=O)C2CC2)cc1Nc1cccc(-c2nc(CNC(=O)COC)no2)c1OC [Example 152]
8,690,[2H]C([2H])([2H])NC(=O)c1nnc(NC(=O)C2CC2)cc1Nc1cccc(-c2nc(CN(C)C(=O)CC#N)no2)c1OC [Example 171]
9,620,[2H]C([2H])([2H])NC(=O)c1nnc(NC(=O)C2CC2)cc1Nc1cccc(-c2ncc(C(=O)N3CCN(S(=O)(=O)C=C)CC3)s2)c1OC [Example 241]
10,460,[2H]C([2H])([2H])NC(=O)c1nnc(NC(=O)C2CC2)cc1Nc1cc(F)cc(-c2cc(C(=O)N(C)CCCN(C)C)n(C)n2)c1OC [Example 510]
11,440,[2H]C([2H])([2H])NC(=O)c1nnc(NC(=O)C2CC2)cc1Nc1cccc(-c2nc(C)c(C(=O)NC(C)C)s2)c1OC [Example 364]
12,390,[2H]C([2H])([2H])NC(=O)c1nnc(NC(=O)C2CC2)cc1Nc1cccc(-c2cc(C(=O)N(C)CCOC)n(C)n2)c1OC [Example 481]
13,350,[2H]C([2H])([2H])NC(=O)c1nnc(NC(=O)C2CC2)cc1Nc1cccc(-c2nc(CCO)no2)c1OC [Example 225]
14,300,[2H]C([2H])([2H])NC(=O)c1nnc(NC(=O)C2CC2)cc1Nc1cccc(-c2nc(CN3CCN(C(=O)C4CC4)CC3)no2)c1OC [Example 132]
15,270,COc1c(Nc2cc(NC(=O)C3CC3)ncc2C(N)=O)cccc1-c1cnn(CCNC(=O)CC#N)n1 [Example 446]
16,270,[2H]C([2H])([2H])NC(=O)c1nnc(NC(=O)C2CC2)cc1Nc1cccc(-c2nc(C)c(C(=O)NCC)s2)c1OC [Example 360]

row,IC50 [nM],SMILES
1,260,[2H]C([2H])([2H])NC(=O)c1nnc(NC(=O)C2CC2)cc1Nc1cccc(-c2cc(C(=O)N3CC4CN(C)CC4C3)n(C)n2)c1OC (centres unmarked) [Example 491]
2,250,[2H]C([2H])([2H])NC(=O)c1nnc(NC(=O)C2CC2)cc1Nc1cc(F)cc(-c2cc(C(=O)N(C)C(C)C)n(C)n2)c1OC [Example 506]
3,190,[2H]C([2H])([2H])NC(=O)c1cnc(Nc2cc(C(C)(C)O)ccn2)cc1Nc1cc(F)cc(-c2cnn(C)n2)c1OC [Example 454]
4,160,[2H]C([2H])([2H])NC(=O)c1nnc(NC(=O)C2CC2)cc1Nc1cccc(-c2ncc(C(=O)NCC)s2)c1OC [Example 272]
5,160,[2H]C([2H])([2H])NC(=O)c1nnc(NC(=O)C2CC2)cc1Nc1cccc(-c2nc(C)c(C(=O)N(C)CC)s2)c1OC [Example 370]
6,150,COCC(=O)NCCn1ncc(-c2cccc(Nc3cc(NC(=O)C4CC4)ncc3C(N)=O)c2OC)n1 [Example 445]
7,130,[2H]C([2H])([2H])NC(=O)c1nnc(NC(=O)C2CC2)cc1Nc1cc(F)cc(-c2cc(C(=O)N3CCOCC3)n(C)n2)c1OC [Example 485]
8,110,[2H]C([2H])([2H])NC(=O)c1nnc(NC(=O)C2CC2)cc1Nc1cccc(-c2ncc(C(=O)N3CCC(CCOC)CC3)s2)c1OC [Example 325]
9,100,[2H]C([2H])([2H])NC(=O)c1nnc(NC(=O)C2CC2)cc1Nc1cccc(-c2nc([C@@H](N)[C@@H](C)O)no2)c1OC [Example 189]
10,90,COc1c(Nc2cc(NC(=O)C3CC3)nnc2C(N)=O)cccc1-c1ncc(CC(=O)N(C)C)s1 [Example 243]
11,50,[2H]C([2H])([2H])NC(=O)c1nnc(NC(=O)C2CC2)cc1Nc1cccc(-c2ncc(C(=O)NCCCN(CC)CC)s2)c1OC [Example 335]
12,50,[2H]C([2H])([2H])NC(=O)c1nnc(NC(=O)C2CC2)cc1Nc1cccc(-c2ncc(C(=O)NCC3CCCCN3C)s2)c1OC (centres unmarked) [Example 329]
13,30,[2H]C([2H])([2H])NC(=O)c1nnc(Nc2ccc(C)nn2)cc1Nc1cccc(-c2ncc(C(=O)N3CCS(=O)(=O)CC3)s2)c1OC [Example 383]
14,23,[2H]C([2H])([2H])NC(=O)c1cnc(NC(=O)C2CC2)cc1Nc1cccc(-c2noc(CO)n2)c1OC [Example 98]
15,16,COc1c(Nc2cc(NC(=O)C3CC3)nnc2C(N)=O)cccc1-c1noc(CN(C)S(=O)(=O)C2CC2)n1 [Example 9]

# Source: US12240840B2, “Amide-substituted heterocyclic compounds for the treatment of conditions related to the modulation of IL-12, IL-23 and/or IFN-alpha” (BRISTOL-MYERS SQUIBB COMPANY, priority 2018, dated 2025)
